Test [1] concerns the target Histone acetyltransferase p300 (Homo sapiens) (UniProt Q09472). Nature of the test: Inhibition of recombinant human p300 catalytic domain (1284 to 1673 aa) using histone H3 at 100 uM after 1 hr by radiochemical assay in presence of [acetyl-3H]-acetyl coenzyme A.
Test [2] has as its target Histone acetyltransferase KAT2B (Homo sapiens) (UniProt Q92831). As to the kind of experiment: Inhibition of recombinant human PCAF catalytic domain (492 to 658 aa) using histone H3 at 100 uM after 1 hr by radiochemical assay in presence of [acetyl-3H]-acetyl coenzyme A.
For test [3], the target named is Histone acetyltransferase p300 (Homo sapiens) (UniProt Q09472). As to the kind of experiment: Inhibition of recombinant human p300 catalytic domain (1284 to 1673 aa) using histone H3 at 200 uM after 1 hr by radiochemical assay in presence of [acetyl-3H]-acetyl coenzyme A.
For test [4] the target is unchanged. As to the kind of experiment: Inhibition of recombinant human p300 catalytic domain (1284 to 1673 aa) using histone H3 at 400 uM after 1 hr by radiochemical assay in presence of [acetyl-3H]-acetyl coenzyme A.

The term inhibition denotes how much of the control response was suppressed.

The structures appear in SMILES notation.

Chain of Histone acetyltransferase KAT2B (Homo sapiens) (Q92831 whole entry, looked up, the tested form may be a part): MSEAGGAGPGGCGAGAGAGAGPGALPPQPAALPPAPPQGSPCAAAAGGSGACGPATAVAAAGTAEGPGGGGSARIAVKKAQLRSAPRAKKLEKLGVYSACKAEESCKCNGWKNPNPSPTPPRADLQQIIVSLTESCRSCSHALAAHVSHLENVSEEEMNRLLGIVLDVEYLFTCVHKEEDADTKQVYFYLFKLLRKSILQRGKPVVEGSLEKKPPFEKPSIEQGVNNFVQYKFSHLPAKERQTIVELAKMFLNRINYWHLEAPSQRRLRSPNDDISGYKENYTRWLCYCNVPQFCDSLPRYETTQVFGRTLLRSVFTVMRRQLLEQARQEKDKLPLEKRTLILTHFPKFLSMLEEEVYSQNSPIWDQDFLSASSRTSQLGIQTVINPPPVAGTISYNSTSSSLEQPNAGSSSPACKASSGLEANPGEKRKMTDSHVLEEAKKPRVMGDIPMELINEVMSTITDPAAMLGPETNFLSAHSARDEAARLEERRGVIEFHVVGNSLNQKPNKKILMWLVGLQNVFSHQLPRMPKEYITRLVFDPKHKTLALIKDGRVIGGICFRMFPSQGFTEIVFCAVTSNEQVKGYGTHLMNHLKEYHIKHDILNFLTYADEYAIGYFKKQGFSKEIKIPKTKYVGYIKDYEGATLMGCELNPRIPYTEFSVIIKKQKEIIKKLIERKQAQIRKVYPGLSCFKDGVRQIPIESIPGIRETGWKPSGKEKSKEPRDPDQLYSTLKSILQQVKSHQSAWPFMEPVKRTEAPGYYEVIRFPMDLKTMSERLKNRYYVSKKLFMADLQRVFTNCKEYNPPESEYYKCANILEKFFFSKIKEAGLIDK
Chain of Histone acetyltransferase p300 (Homo sapiens) (Q09472 whole entry, the tested form may be a part): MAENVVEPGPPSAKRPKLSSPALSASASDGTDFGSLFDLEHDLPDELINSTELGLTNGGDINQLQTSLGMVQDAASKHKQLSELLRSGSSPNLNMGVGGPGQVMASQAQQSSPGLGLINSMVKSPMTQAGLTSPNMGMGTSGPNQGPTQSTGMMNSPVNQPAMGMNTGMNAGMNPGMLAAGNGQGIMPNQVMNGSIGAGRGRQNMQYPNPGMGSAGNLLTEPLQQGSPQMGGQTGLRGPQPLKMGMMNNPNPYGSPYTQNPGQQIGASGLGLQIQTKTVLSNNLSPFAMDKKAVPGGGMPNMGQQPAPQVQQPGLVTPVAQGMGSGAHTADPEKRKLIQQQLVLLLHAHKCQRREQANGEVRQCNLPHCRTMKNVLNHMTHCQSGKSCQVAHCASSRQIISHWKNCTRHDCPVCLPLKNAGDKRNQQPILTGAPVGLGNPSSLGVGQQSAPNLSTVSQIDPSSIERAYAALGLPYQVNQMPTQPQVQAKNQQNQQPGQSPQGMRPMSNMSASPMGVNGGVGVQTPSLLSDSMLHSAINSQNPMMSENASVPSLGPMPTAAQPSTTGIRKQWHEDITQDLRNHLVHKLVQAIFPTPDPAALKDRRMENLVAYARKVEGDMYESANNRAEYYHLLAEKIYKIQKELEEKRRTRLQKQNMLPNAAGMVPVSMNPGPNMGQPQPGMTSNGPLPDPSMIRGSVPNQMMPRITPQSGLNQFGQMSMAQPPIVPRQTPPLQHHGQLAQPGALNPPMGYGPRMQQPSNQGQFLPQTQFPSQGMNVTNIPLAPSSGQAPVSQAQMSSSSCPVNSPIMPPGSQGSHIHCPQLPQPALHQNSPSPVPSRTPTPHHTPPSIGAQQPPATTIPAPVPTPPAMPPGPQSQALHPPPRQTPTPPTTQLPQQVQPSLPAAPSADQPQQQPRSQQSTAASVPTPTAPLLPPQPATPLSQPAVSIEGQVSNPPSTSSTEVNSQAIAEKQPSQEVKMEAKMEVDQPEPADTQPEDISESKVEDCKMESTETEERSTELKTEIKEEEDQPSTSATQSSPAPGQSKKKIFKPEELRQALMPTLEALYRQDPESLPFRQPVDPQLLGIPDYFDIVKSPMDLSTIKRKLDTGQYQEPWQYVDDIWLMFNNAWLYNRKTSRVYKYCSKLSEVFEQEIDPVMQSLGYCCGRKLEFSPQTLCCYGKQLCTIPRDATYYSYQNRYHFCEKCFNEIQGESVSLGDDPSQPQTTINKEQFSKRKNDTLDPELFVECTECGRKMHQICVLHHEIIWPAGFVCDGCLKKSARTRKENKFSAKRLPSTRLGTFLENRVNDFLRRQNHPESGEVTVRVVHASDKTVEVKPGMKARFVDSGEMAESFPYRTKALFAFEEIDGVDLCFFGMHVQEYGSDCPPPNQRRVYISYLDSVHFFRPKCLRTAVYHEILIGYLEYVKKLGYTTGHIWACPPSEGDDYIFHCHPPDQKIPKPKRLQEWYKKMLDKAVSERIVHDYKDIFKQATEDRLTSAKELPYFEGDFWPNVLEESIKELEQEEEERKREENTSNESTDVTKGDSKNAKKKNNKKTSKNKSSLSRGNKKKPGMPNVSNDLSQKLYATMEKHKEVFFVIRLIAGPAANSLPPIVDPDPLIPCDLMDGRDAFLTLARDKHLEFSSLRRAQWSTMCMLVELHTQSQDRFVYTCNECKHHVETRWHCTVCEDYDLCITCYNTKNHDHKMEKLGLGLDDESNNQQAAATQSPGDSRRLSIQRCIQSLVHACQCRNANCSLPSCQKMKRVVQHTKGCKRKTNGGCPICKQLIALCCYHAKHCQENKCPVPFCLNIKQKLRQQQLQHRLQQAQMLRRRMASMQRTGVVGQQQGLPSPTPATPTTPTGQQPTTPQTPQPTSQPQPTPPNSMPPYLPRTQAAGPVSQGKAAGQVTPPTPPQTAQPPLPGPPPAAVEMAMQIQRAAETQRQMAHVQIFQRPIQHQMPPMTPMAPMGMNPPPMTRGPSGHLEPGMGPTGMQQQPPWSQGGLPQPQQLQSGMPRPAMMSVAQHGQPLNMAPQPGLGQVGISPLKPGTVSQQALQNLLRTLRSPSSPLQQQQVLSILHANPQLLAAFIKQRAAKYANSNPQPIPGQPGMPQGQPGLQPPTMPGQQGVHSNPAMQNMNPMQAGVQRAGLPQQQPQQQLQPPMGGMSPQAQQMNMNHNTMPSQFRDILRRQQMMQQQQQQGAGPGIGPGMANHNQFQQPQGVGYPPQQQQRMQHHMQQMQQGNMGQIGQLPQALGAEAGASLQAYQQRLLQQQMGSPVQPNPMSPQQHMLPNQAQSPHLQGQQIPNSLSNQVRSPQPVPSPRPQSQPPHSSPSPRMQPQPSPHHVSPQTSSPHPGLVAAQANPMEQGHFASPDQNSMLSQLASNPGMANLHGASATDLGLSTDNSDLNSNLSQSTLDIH

Turning to `CC(C)=NNc1nc(-c2ccccc2)c(C)s1`, the inhibition in test [1] worked out at 20%; in test [2], 5%.
For the molecule `CC1CC/C(=N/Nc2nc(-c3ccc(Cl)cc3)cc(=O)[nH]2)C1` (centres undefined), the inhibition in test [1] came out at 41%; in test [3] it was 55%; in test [2], 8%; in test [4], 64%.
As to `C/C(=N/Nc1nc(-c2ccc(Cl)cc2)cs1)C1c2ccccc2-c2ccc(C(=O)O)cc21` (centres undefined), the inhibition in test [1] amounted to 37%; in test [2], 14%.
Take `CCC/C(C)=N/Nc1nc(-c2ccc(Cl)cc2)cs1`: the inhibition in test [1] worked out at 19%; in test [2], 7%.
As to `O=C1CSC(NN=C2CCCC2)=N1`, the inhibition in test [1] turned out to be 0%; in test [2], 1%.
On the same counts, the results for `COc1ccc(-c2csc(N/N=C3/CCC(C)C3)n2)cc1` (centres undefined) are 28% and 5%.
For `Clc1ccc(-c2csc(N/N=C\c3cccnc3)n2)cc1`, the inhibition in test [1] amounted to 28%; in test [2], 17%.
Turning to `Cc1sc(N/N=C2/CCC(C)C2)nc1-c1ccccc1` (centres undefined), the inhibition was found to be 15% in test [1] and 3% in test [2].
In the case of `O=[N+]([O-])c1cccc(-c2csc(NN=C3CCCC3)n2)c1`, the inhibition in test [1] came to 44%; in test [3] it was 51%; in test [2] it was 15%; in test [4], 60%.
As to `CC1CC/C(=N/Nc2nc(-c3ccc(F)cc3)cs2)C1` (centres undefined), the inhibition in test [1] was determined as 5%; in test [2], 8%.
As for `CC1CC/C(=N/Nc2nc(-c3cccc([N+](=O)[O-])c3)cc(=O)[nH]2)C1` (centres undefined), the inhibition in test [1] turned out to be 14%.
Turning to `CCOC(=O)c1csc(NN=C(C)C)n1`, the inhibition in test [1] stood at 22%; in test [2], 0%.
The like results for `NNc1nc(-c2ccccc2)cs1` were, in that order, 5% and 16%.
Regarding `C=CCC/C(C)=N/Nc1nc(-c2ccc(Cl)cc2)cs1`, the inhibition in test [1] turned out to be 32%; in test [2], 12%.
Regarding `COc1ccc(-c2csc(N/N=C3\CCC[C@@H](C)C3)n2)cc1`, the inhibition in test [1] was 27%; in test [2] it was 0%.
In the case of `O=c1cc(-c2ccc(Cl)cc2)nc(NN=C2CCCC2)[nH]1`, the inhibition in test [1] worked out at 31%; in test [3], 46%; in test [2], 10%; in test [4], 54%.
For the molecule `CCCC/C(C)=N/Nc1nc(-c2ccc(Cl)cc2)cs1`, the inhibition in test [1] was 0%; in test [2] it was 8%.
In the case of `c1ccc2cc(-c3csc(NN=C4CCCC4)n3)ccc2c1`, the inhibition was 19% in test [1] and 8% in test [2].
Take `Clc1ccc(-c2csc(N/N=C\c3cccc4ccccc34)n2)cc1`: the inhibition turned out to be 9% in test [1] and 0% in test [2].
For `CC1CCC/C(=N/Nc2nc(-c3ccc(Cl)cc3)cs2)C1` (centres undefined), the inhibition in test [1] is 9%; in test [2], 0%.
As for `CC(C)=NNc1nc(-c2ccc(Cl)cc2Cl)cs1`, the inhibition was 30% in test [1] and 16% in test [2].
`C/C(=N/Nc1nc(-c2ccc(Cl)cc2)cs1)c1ccccc1`: the inhibition in test [1] amounted to 7%; in test [2], 9%.
For the molecule `COc1ccc(-c2csc(NN=C3CCCC3)n2)cc1`, the inhibition in test [1] stood at 33%; in test [3], 47%; in test [2], 11%; in test [4] it was 57%.
Turning to `CCCCC/C(C)=N/Nc1nc(-c2ccc(Cl)cc2)cs1`, the results for the inhibition in test [1] and in test [2] were 5% and 16%, respectively.
Consider `CCOC(=O)c1csc(NN=C2CCCC2)n1`, for which the inhibition was 19% in test [1] and 5% in test [2].
Consider `CC1CC/C(=N/Nc2nc(-c3ccc4ccccc4c3)cs2)C1` (centres undefined), for which the inhibition is 4% in test [1] and 0% in test [2].
Regarding `C/C(=N/Nc1nc(-c2ccc(Cl)cc2)cs1)c1cccs1`, the inhibition is 26% in test [1] and 5% in test [2].
Turning to `CC(C)=NNc1nc(-c2ccccc2)cs1`, the figures for the inhibition in test [1] and in test [2] were 14% and 0%, respectively.
On the same counts, the results for `COc1ccc(-c2csc(NN=C(C)C)n2)cc1` are 21% and 5%.
The like results for `CCC(C)/C(C)=N/Nc1nc(-c2ccc(Cl)cc2)cs1` (centres undefined) were, in that order, 2% and 9%.
For the molecule `Cc1csc(NN=C2CCCC2)n1`, the inhibition amounted to 0% in test [1] and 30% in test [2].
For `Nc1nc(-c2ccc(Cl)cc2)cs1`, the inhibition was determined as 31% in test [1] and 0% in test [2].
`COc1ccc(-c2csc(N/N=C3/CCCC(C)C3)n2)cc1` (centres undefined): the inhibition in test [1] came to 19%; in test [2] it was 4%.
Turning to `Cc1sc(NN=C2CCCC2)nc1-c1ccccc1`, the inhibition in test [1] and in test [2] was 2% in each case.
For the molecule `O=c1cc(-c2ccccc2)nc(NN=C2CCCC2)[nH]1`, the inhibition in test [1] turned out to be 3%.
As to `COc1ccc(-c2csc(NN=C3CCCCCC3)n2)cc1`, the results for the inhibition in test [1] and in test [2] were 16% and 0%, respectively.
Regarding `CC(C)=NNc1nc(-c2ccccc2)cc(=O)[nH]1`, the inhibition in test [1] stood at 4%.
With `Nc1nc(-c2ccccc2)cs1`, the inhibition in test [1] was found to be 4%; in test [2], 3%.
Take `CC(C)=NNc1nc(-c2ccc(Br)cc2)cc(=O)[nH]1`: the inhibition in test [1] is 9%.
As for `CC(C)=NNc1nc(-c2ccc(Cl)cc2)cc(=O)[nH]1`, the inhibition in test [1] was determined as 7%.
As to `CC(C)=NNc1nc(-c2ccc3ccccc3c2)cs1`, the inhibition came to 25% in test [1] and 10% in test [2].
For `Clc1ccc(-c2csc(N/N=C\c3ccc4c(c3)OCO4)n2)cc1`, the inhibition in test [1] came to 11%; in test [2] it was 0%.
As to `CC(C)=NNc1nc(-c2cccc([N+](=O)[O-])c2)cc(=O)[nH]1`, the inhibition in test [1] was 4%.
As for `CC/C(C)=N/Nc1nc(-c2ccc(Cl)cc2)cs1`, the inhibition in test [1] was 33%; in test [2], 8%.
Turning to `CC1CC/C(=N/Nc2nc(-c3ccc(C#N)cc3)cs2)C1` (centres undefined), the inhibition in test [1] was 35%; in test [2], 6%.
Take `Clc1ccc(-c2csc(N/N=C\c3ccncc3)n2)cc1`: the inhibition in test [1] came to 37%; in test [2] it was 13%.
Consider `CC(C)=NNc1nc(-c2ccc(F)cc2)cs1`, for which the results for the inhibition in test [1] and in test [2] were 34% and 0%, respectively.
As for `C/C(=N/Nc1nc(-c2ccc(Cl)cc2)cs1)c1cccnc1`, the inhibition in test [1] amounted to 1%; in test [2], 11%.
As to `O=c1cc(-c2ccc(Br)cc2)nc(NN=C2CCCC2)[nH]1`, in test [1], the inhibition was 9%.
For the molecule `CCOC(=O)c1csc(N/N=C2/CCC(C)C2)n1` (centres undefined), the values for the inhibition in test [1] and in test [2] were 22% and 8%, respectively.
On to `C/C(=N/Nc1nc(-c2ccc(Cl)cc2)cs1)C1CCCCC1`, for which the values for the inhibition in test [1] and in test [2] were 3% and 8%, respectively.
As for `CC(C)=NNc1nc(-c2ccc(-c3ccccc3)cc2)cs1`, the inhibition in test [1] was 20%; in test [2] it was 0%.
For `CC1CC/C(=N/Nc2nc(-c3ccc(Br)cc3)cc(=O)[nH]2)C1` (centres undefined), the inhibition in test [1] was found to be 12%.
Take `Clc1ccc(-c2csc(NN=C3CCCCCCC3)n2)cc1`: the inhibition was determined as 15% in test [1] and 6% in test [2].
In the case of `COc1cccc(-c2csc(NN=C(C)C)n2)c1`, the inhibition in test [1] amounted to 30%; in test [2] it was 4%.
The like results for `Clc1ccc(-c2csc(N/N=C\c3ccco3)n2)cc1` were, in that order, 15% and 9%.
On the same counts, the results for `CC1CCC/C1=N/Nc1nc(-c2ccc(Cl)cc2)cs1` (centres undefined) are 33% and 2%.
On to `CC1CC/C(=N/Nc2nc(-c3ccc(F)cc3F)cs2)C1` (centres undefined), for which the inhibition in test [1] was 14%; in test [2], 18%.
With `C/C(=N/Nc1nc(-c2ccc(Cl)cc2)cs1)c1ccncc1`, the inhibition in test [1] amounted to 36%; in test [2], 10%.
Turning to `C[C@@H]1CCC/C(=N/Nc2nc(-c3ccc(Cl)cc3)cs2)C1`, the inhibition in test [1] was 27%; in test [2], 0%.
Turning to `CCCCCC/C(C)=N/Nc1nc(-c2ccc(Cl)cc2)cs1`, the inhibition in test [1] turned out to be 8%; in test [2] it was 10%.
Regarding `C/C(=N/Nc1nc(-c2ccc(Cl)cc2)cs1)c1ccc2ccccc2c1`, the results for the inhibition in test [1] and in test [2] were 16% and 7%, respectively.
On to `CC(C)=NNc1nc(C)cs1`, for which the inhibition in test [1] was 13%; in test [2] it was 3%.
The like results for `C/C(=N/Nc1nc(-c2ccc(Cl)cc2)cs1)c1ccco1` were, in that order, 26% and 2%.
In the case of `CCC(CC)=NNc1nc(-c2ccc(Cl)cc2)cs1`, the inhibition in test [1] is 35%; in test [2], 10%.
Regarding `COc1ccc(-c2csc(N/N=C3/CCCC3C)n2)cc1` (centres undefined), the inhibition stood at 32% in test [1] and 2% in test [2].
For `Clc1ccc(-c2csc(NN=C3CCCC3)n2)c(Cl)c1`, the inhibition in test [1] was 30%; in test [2], 21%.
The like results for `CC1(C)C=C/C(=N\Nc2nc(-c3ccc(Cl)cc3)cs2)CC1` were, in that order, 0% and 0%.
In the case of `O=c1cc(-c2cccc([N+](=O)[O-])c2)nc(NN=C2CCCC2)[nH]1`, the inhibition in test [1] is 9%.
Regarding `Clc1ccc(-c2csc(N/N=C\c3cccs3)n2)cc1`, the inhibition came to 13% in test [1] and 4% in test [2].
For `CC1CC/C(=N/Nc2nc(-c3ccccc3)cc(=O)[nH]2)C1` (centres undefined), the inhibition in test [1] turned out to be 0%.
As to `Clc1ccc(-c2csc(NN=C3CCCCCC3)n2)cc1`, the results for the inhibition in test [1] and in test [2] were 20% and 0%, respectively.
On to `CC(C)=NN=C1NC(=O)CS1`, for which the figures for the inhibition in test [1] and in test [2] were 14% and 7%, respectively.

(Values after ChEMBL document CHEMBL3259575, “Evaluation of a large library of (thiazol-2-yl)hydrazones and analogues as histone acetyltransferase inhibitors: enzyme and cellular studies” (2014).)
